How the values were obtained:
Format in all cases: functional
[1] = system: EKVX; assay: Growth inhibition of human EKVX cells assessed as cell growth at 10^-8 M incubated for 48 hrs by sulforhodamine B assay relative to control; settings: read-out: Activity
[2] = system: TK-10; assay: Growth inhibition of human TK10 cells assessed as cell growth at 10^-4 M incubated for 48 hrs by sulforhodamine B assay relative to control; settings: TK-10, 48 h, read-out: Activity
[3] = system: HCT-15; assay: Growth inhibition of human HCT15 cells incubated for 48 hrs by sulforhodamine B assay; settings: HCT-15, 48 h
[4] = system: CAKI-1; assay: Growth inhibition of human Caki1 cells assessed as cell growth at 10^-4 M incubated for 48 hrs by sulforhodamine B assay relative to control; settings: CAKI-1, 48 h, read-out: Activity
[5] = system: COLO 205; assay: Growth inhibition of human COLO205 cells incubated for 48 hrs by sulforhodamine B assay; settings: COLO 205, 48 h
[6] = system: UACC-62; assay: Growth inhibition of human UACC62 cells assessed as cell growth at 10^-7 M incubated for 48 hrs by sulforhodamine B assay relative to control; settings: UACC-62, 48 h, read-out: Activity
[7] = system: LOX IMVI; assay: Growth inhibition of human LOXIMVI cells assessed as cell growth at 10^-6 M incubated for 48 hrs by sulforhodamine B assay relative to control; settings: read-out: Activity
[8] = system: OVCAR-3; assay: Growth inhibition of human OVCAR3 cells assessed as cell growth at 10^-8 M incubated for 48 hrs by sulforhodamine B assay relative to control; settings: OVCAR-3, 48 h, read-out: Activity
[9] = system: COLO 205; assay: Growth inhibition of human COLO205 cells assessed as cell growth at 10^-7 M incubated for 48 hrs by sulforhodamine B assay relative to control; settings: COLO 205, 48 h, read-out: Activity
[10] = system: T47D; assay: Growth inhibition of human T47D cells assessed as cell growth at 10^-6 M incubated for 48 hrs by sulforhodamine B assay relative to control; settings: read-out: Activity
[11] = system: ACHN; assay: Growth inhibition of human ACHN cells assessed as cell growth at 10^-5 M incubated for 48 hrs by sulforhodamine B assay relative to control; settings: read-out: Activity
[12] = system: MOLT-4; assay: Growth inhibition of human MOLT4 cells assessed as cell growth at 10^-4 M incubated for 48 hrs by sulforhodamine B assay relative to control; settings: MOLT-4, 48 h, read-out: Activity
[13] = system: OVCAR-4; assay: Growth inhibition of human OVCAR4 cells incubated for 48 hrs by sulforhodamine B assay; settings: OVCAR-4, 48 h
[14] = system: HL-60(TB); assay: Growth inhibition of human HL-60(TB) cells assessed as cell growth at 10^-4 M incubated for 48 hrs by sulforhodamine B assay relative to control; settings: HL-60, 48 h, read-out: Activity
[15] = system: SF-295; assay: Growth inhibition of human SF295 cells assessed as cell growth at 10^-8 M incubated for 48 hrs by sulforhodamine B assay relative to control; settings: SF-295, 48 h, read-out: Activity
[16] = system: NCI-H522; assay: Growth inhibition of human NCI-H522 cells assessed as cell growth at 10^-8 M incubated for 48 hrs by sulforhodamine B assay relative to control; settings: NCI-H522, 48 h, read-out: Activity
[17] = system: MDA-MB-435; assay: Induction of apoptosis in human MDA-MB-435 cells assessed as early apoptotic cells by propidium iodide/Annexin V staining based flow cytometry (reference value: 0.25%)
[18] = system: NCI-H460; assay: Growth inhibition of human NCI-H460 cells incubated for 48 hrs by sulforhodamine B assay; settings: NCI-H460, 48 h
[19] = system: DU-145; assay: Growth inhibition of human DU145 cells assessed as cell growth at 10^-7 M incubated for 48 hrs by sulforhodamine B assay relative to control; settings: DU-145, 48 h, read-out: Activity
[20] = system: ACHN; assay: Growth inhibition of human ACHN cells assessed as cell growth at 10^-7 M incubated for 48 hrs by sulforhodamine B assay relative to control; settings: read-out: Activity
[21] = system: SK-MEL-28; assay: Growth inhibition of human SK-MEL-28 cells assessed as cell growth at 10^-7 M incubated for 48 hrs by sulforhodamine B assay relative to control; settings: SK-MEL-28, 48 h, read-out: Activity
[22] = system: UACC-62; assay: Growth inhibition of human UACC62 cells assessed as cell growth at 10^-5 M incubated for 48 hrs by sulforhodamine B assay relative to control; settings: UACC-62, 48 h, read-out: Activity
[23] = system: MDA-MB-435; assay: Growth inhibition of human MDA-MB-435 cells assessed as cell growth at 10^-6 M incubated for 48 hrs by sulforhodamine B assay relative to control; settings: MDA-MB-435, 48 h, read-out: Activity
[24] = system: BT-549; assay: Growth inhibition of human BT549 cells assessed as cell growth at 10^-5 M incubated for 48 hrs by sulforhodamine B assay relative to control; settings: BT-549, 48 h, read-out: Activity
[25] = system: BT-549; assay: Growth inhibition of human BT549 cells assessed as cell growth at 10^-7 M incubated for 48 hrs by sulforhodamine B assay relative to control; settings: BT-549, 48 h, read-out: Activity
[26] = system: HL-60; assay: Downregulation of HDAC2 mRNA expression in human HL60 cells by qRT-PCR method relative to control
[27] = system: HOP-62; assay: Growth inhibition of human HOP62 cells assessed as cell growth at 10^-6 M incubated for 48 hrs by sulforhodamine B assay relative to control; settings: HOP-62, 48 h, read-out: Activity
[28] = system: HL-60; assay: Antiproliferative activity against human HL60 cells after 24 hrs by MTT assay; settings: for GI50: Homo sapiens, HL-60, 24 h
[29] = system: MDA-MB-435; assay: Growth inhibition of human MDA-MB-435 cells assessed as cell growth at 10^-7 M incubated for 48 hrs by sulforhodamine B assay relative to control; settings: MDA-MB-435, 48 h, read-out: Activity
[30] = system: HCT-15; assay: Growth inhibition of human HCT15 cells assessed as cell growth at 10^-4 M incubated for 48 hrs by sulforhodamine B assay relative to control; settings: HCT-15, 48 h, read-out: Activity
[31] = system: SK-MEL-2; assay: Growth inhibition of human SK-MEL-2 cells assessed as cell growth at 10^-7 M incubated for 48 hrs by sulforhodamine B assay relative to control; settings: SK-MEL-2, 48 h, read-out: Activity
[32] = system: LOX IMVI; assay: Growth inhibition of human LOXIMVI cells assessed as cell growth at 10^-8 M incubated for 48 hrs by sulforhodamine B assay relative to control; settings: read-out: Activity
[33] = read-out: LC50 (the source's name)
[34] = read-out: pLC50 (the source's name) (converted)

CCS/C(Nc1ccccc1)=C(\C#N)C(=O)N/N=C\c1ccc(Cl)cc1Cl
growth at 0.01 µM [1]: 98% | growth at 100 µM [2]: 42% | GI50 ([3]; read-out: GI50): 2.9 µM | CC50 [3, 33]: > 100 µM | TGI ([3]; read-out: TGI): > 100 µM | GI50 ([3]; read-out: pGI50 (converted)): 2.88 µM | CC50 [3, 34]: > 100 µM | TGI ([3]; read-out: pTGI): > 100 µM | growth at 100 µM [4]: 13% | GI50 ([5]; read-out: GI50): 3.09 µM | CC50 [5, 33]: > 100 µM | GI50 ([5]; read-out: pGI50 (converted)): 3.09 µM | CC50 [5, 34]: > 100 µM | growth at 0.1 µM [6]: 91% | growth at 1 µM [7]: 86% | growth at 0.01 µM [8]: 102% | growth at 0.1 µM [9]: 97% | growth at 1 µM [10]: 89% | growth at 10 µM [11]: 43% | growth at 100 µM [12]: 19% | GI50 ([13]; read-out: GI50): 6.57 µM | CC50 [13, 33]: > 100 µM | TGI ([13]; read-out: TGI): > 100 µM | GI50 ([13]; read-out: pGI50 (converted)): 6.61 µM | CC50 [13, 34]: > 100 µM | TGI ([13]; read-out: pTGI): > 100 µM | growth at 100 µM [14]: 5% | growth at 0.01 µM [15]: 95% | growth at 0.01 µM [16]: 109% | Activity [17]: 2.52% | GI50 ([18]; read-out: GI50): 3.16 µM | LC50 ([18]; read-out: LC50): > 100 µM | TGI ([18]; read-out: TGI): > 100 µM | GI50 ([18]; read-out: pGI50 (converted)): 3.16 µM | LC50 ([18]; read-out: pLC50 (converted)): > 100 µM | TGI ([18]; read-out: pTGI (converted)): > 100 µM | growth at 0.1 µM [19]: 98% | growth at 0.1 µM [20]: 98% | growth at 0.1 µM [21]: 95% | growth at 10 µM [22]: 26% | growth at 1 µM [23]: 28% | growth at 10 µM [24]: 18% | growth at 0.1 µM [25]: 87% | fold change (FC) [26]: <=10 | growth at 1 µM [27]: 76% | Activity [28]: Dose-dependent effect | GI50 [28]: 3.2 µM | growth at 0.1 µM [29]: 86% | growth at 100 µM [30]: 11% | growth at 0.1 µM [31]: 101% | growth at 0.01 µM [32]: 95%

CCS/C(Nc1ccccc1)=C(\C#N)C(=O)Nc1ccc(OC)cc1
growth at 0.01 µM [1]: 89% | growth at 100 µM [2]: 24% | GI50 ([3]; read-out: GI50): 1.19 µM | CC50 [3, 33]: > 100 µM | TGI ([3]; read-out: TGI): > 100 µM | GI50 ([3]; read-out: pGI50 (converted)): 1.2 µM | CC50 [3, 34]: > 100 µM | TGI ([3]; read-out: pTGI): > 100 µM | growth at 100 µM [4]: 18% | GI50 ([5]; read-out: GI50): 3.06 µM | CC50 [5, 33]: > 100 µM | TGI ([5]; read-out: TGI): 11.2 µM | GI50 ([5]; read-out: pGI50 (converted)): 3.09 µM | CC50 [5, 34]: > 100 µM | TGI ([5]; read-out: pTGI (converted)): 11.2 µM | growth at 0.1 µM [6]: 93% | growth at 1 µM [7]: 89% | growth at 0.01 µM [8]: 97% | growth at 0.1 µM [9]: 97% | growth at 1 µM [10]: 88% | growth at 10 µM [11]: 33% | growth at 100 µM [12]: 18% | GI50 ([13]; read-out: GI50): 7.61 µM | CC50 [13, 33]: > 100 µM | TGI ([13]; read-out: TGI): > 100 µM | GI50 ([13]; read-out: pGI50 (converted)): 7.59 µM | CC50 [13, 34]: > 100 µM | TGI ([13]; read-out: pTGI): > 100 µM | growth at 100 µM [14]: 2% | growth at 0.01 µM [15]: 94% | growth at 0.01 µM [16]: 107% | Activity [17]: 4.61% | GI50 ([18]; read-out: GI50): 3.14 µM | LC50 ([18]; read-out: LC50): > 100 µM | TGI ([18]; read-out: TGI): 34.2 µM | GI50 ([18]; read-out: pGI50 (converted)): 3.16 µM | LC50 ([18]; read-out: pLC50 (converted)): > 100 µM | TGI ([18]; read-out: pTGI (converted)): 33.9 µM | growth at 0.1 µM [19]: 96% | growth at 0.1 µM [20]: 93% | growth at 0.1 µM [21]: 91% | growth at 10 µM [22]: 21% | growth at 1 µM [23]: 19% | growth at 10 µM [24]: 21% | growth at 0.1 µM [25]: 89% | fold change (FC) [26]: <=10 | growth at 1 µM [27]: 78% | Activity [28]: Dose-dependent effect | GI50 [28]: 2.87 µM | growth at 0.1 µM [29]: 91% | growth at 100 µM [30]: 4% | growth at 0.1 µM [31]: 102% | growth at 0.01 µM [32]: 100%

Source: ChEMBL document CHEMBL4145553, “Design, synthesis, and biological evaluation of novel amide and hydrazide based thioether analogs targeting Histone deacteylase (HDAC) enzymes” (Eur J Med Chem, 2018)
